# Experimental data reported in paper PMC3740138, “Bile acids induce apoptosis selectively in androgen-dependent and -independent prostate cancer cells” (PeerJ, 2013).
# What was measured:
# LNCaP cells [1] = assay: Percentage of intact cells (Hoechst 33342 / propidium iodide counting), LNCaP; format: cell-based, human; details: for Concentrations decreasing cell viability / number of intact cells: 48 h, tested 10–500 µM; for Effect of caspase inhibitor on LCA-induced cell death: 24 h co-exposure, 40 µM LCA + 10 µM inhibitor
# Description: (§1) For apoptotic and necrotic cell death measurements, LNCaP and PC-3 cells were seeded at densities of 1 × 10^5 and 0.5 × 10^5 cells/ml, respectively, in 24-well plates in 2% stripped-FBS. Cells were then treated with several concentrations of bile acids in the presence (LNCaP) or absence (PC-3) of 0.1 nM DHT. […] After a 15 min incubation at 37°C, cells were observed and counted under a Nikon Eclipse (TE-2000U) inverted fluorescent microscope at 20× magnification. […] To measure mitochondrial membrane potential (MMP), cells were treated with LCA for 1, 4 or 8 h, and tetramethylrhodamine ethyl ester (TMRE) was added to each well at a final concentration of 50 nM. TMRE is a cell permeable, positively charged dye that accumulates in active negatively charged mitochondria.
# (§2) All experiments were performed in at least triplicate using cells after various passages and the data are presented as mean ± SEM. Statistically significant differences (p < 0.05) between various treatments and untreated cells were determined using a two-tailed Student t-test with Bonferroni correction for multiple comparisons. IC50 values for inhibition of cell viability were calculated using a sigmoidal curve-fitting model of log-inhibitor concentration versus normalized inhibition response, with variable slope (GraphPad Prism v5.03, GraphPad Software, San Diego, CA).
# PC-3 cells [2] = assay: Percentage of intact cells (Hoechst 33342 / propidium iodide counting), PC-3; format: cell-based, human; details: for Concentrations decreasing cell viability / number of intact cells: PC-3, 48 h, tested 10–500 µM; for Effect of caspase inhibitor on LCA-induced cell death: PC-3, 24 h co-exposure, 50 µM LCA + 10 µM inhibitor
# Description: as §1, §2
# PC-3 cells [3] = test system: PC-3 cells; parameters: method as in Choi et al., 2003; details: ref Choi et al., 2003; cited from earlier work
# caspase-3 [4] = assay: Caspase-3 activity (Ac-DEVD-AFC cleavage) in PC-3 cell extracts; format: cell-based, human; details: PC-3, 24 h, 25–75 µM
# Description: (§3) PC-3 and LNCaP cells were seeded in 6-well plates at densities of 400000 or 750000 cells per well, respectively, in 0.5 ml culture medium containing 2% stripped FBS and 24 h later they were exposed to various concentrations of LCA in fresh medium for another 24 h. Proteins were then extracted from harvested cells using 1× RIPA buffer (Millipore, Billerica, MA) containing 1× protease inhibitor cocktail, centrifuged at 13,000 g for 5 min at 4°C to remove cell debris, and frozen at −80°C overnight. Protein concentrations were then quantified using a BCA protein detection kit (Thermo Scientific, Waltham, MA). Caspase activities were determined using fluorogenic caspase substrates selective for either caspase-3 (5 µM Ac-DEVD-AFC), caspase-9 (10 µM Ac-LEHD-AFC) or caspase-8 (10 µM Ac-IETD-AFC) in 10 µg of extracted protein suspended in caspase reaction buffer (20 mM PIPES at pH 7.2, 30 mM NaCl, 10 mM DTT, 1 mM EDTA, 0.1% CHAPS, 10% sucrose). The time-dependent release of 7-amino-4-trifluoromethyl coumarin (AFC) was measured using a SpectroMax M5 microplate reader (Molecular Devices, Sunnydale, CA) at an excitation wavelength of 400 nm and an emission wavelength of 505 nm. Measurements were recorded at 2 min intervals for 90 min. A standard curve of AFC fluorescence was used to calculate the amount of AFC released (in picomoles) during each reaction.
# RWPE-1 cells = assay: Percentage of intact cells (Hoechst 33342 / propidium iodide counting), RWPE-1; format: cell-based, human; details: RWPE-1, 48 h, 50 or 75 µM
# [5] = test system: LNCaP human prostate cancer cells; assay: Extra/intracellular distribution by mass spectrometry, LNCaP; format: in vitro ADME; details: for % of compound recovered, Cells / % of compound recovered, Medium: LNCaP, 24 h, mean ± SD
# Description: (§4) Mass spectrometry-based analysis of LCA and UDCA was performed as previously reported ([Bourque & Titorenko, 2009]). […] The extracted lipids were dried under nitrogen and resuspended in chloroform. Immediately prior to injection the extracted lipids were combined with a 2:1 methanol:chloroform mixture supplemented with 0.1% (v/v) ammonium hydroxide. The sample was injected directly into a Thermo Orbitrap Velos equipped with a HESI-II ion source (Thermo Scientific, Waltham, MA, USA) at a flow rate of 5 µl/min. Spectra were obtained in negative-ion mode. The source voltage was set to 4.0 kV, a capillary temperature of 275°C, a sheath gas flow of 5 (arbitrary units) and an auxiliary gas flow of 1 (arbitrary units). Acquired spectra were exported from Xcalibur software (Thermo Scientific) and then deconvoluted and deisotoped using Excel macros.
# caspase-9 [6] = assay: Caspase-9 activity (Ac-LEHD-AFC cleavage) in PC-3 cell extracts; format: cell-based, human; details: PC-3, 24 h, 25–75 µM
# Description: as §3
# PC-3 cells [7] = assay: Western blot of apoptosis proteins, PC-3; format: cell-based, human; details: PC-3, 24 h
# Description: (§5) Crude protein extracts (50 µg) were resolved by electrophoresis using 10% sodium dodecyl sulfate-polyacrylamide gels and then transferred to a PVDF Immobilon-P membrane (Bio-Rad, Mississauga, ON). Blots were blocked using 5% milk powder (Selection brand, Marché Jean-Talon, Montréal, QC) and incubated with antibodies as follows: 1:250 dilution for anti-caspase-3, 1:1000 for anti-cleaved PARP, 1:1000 for anti-Bcl-2, 1:1000 for anti-Bax, and 1:1000 for anti-Bid. Immunoreactive proteins were exposed to anti-rabbit horseradish peroxidise-conjugated secondary antibodies (Millipore) that were diluted 1:5000. Antigen-antibody complexes were detected using Immobilon ECL Western Chemiluminescent HRP Substrate (Millipore) and recorded with a Versadoc imaging system (Bio-Rad). Total protein content per well was determined using 1 × Amido Black staining solution (Sigma-Aldrich).
# PC-3 cells [8] = assay: Mitochondrial membrane potential (TMRE), PC-3; format: cell-based, human; details: PC-3, 75 µM, as early as after 1 h
# caspase-9 [9] = assay: Caspase-9 activity (Ac-LEHD-AFC cleavage) in LNCaP cell extracts; format: cell-based, human; details: 24 h, 25–75 µM
# Description: as §3
# [10] = test system: PC-3 human prostate cancer cells; assay: Extra/intracellular distribution by mass spectrometry, PC-3; format: in vitro ADME; details: for % of compound recovered, Cells / % of compound recovered, Medium: 24 h, mean ± SD
# Description: as §4
# caspase-8 [11] = assay: Caspase-8 activity (Ac-IETD-AFC cleavage) in LNCaP cell extracts; format: cell-based, human; details: 24 h, 25–75 µM
# Description: as §3
# LNCaP cells [12] = assay: Western blot of apoptosis proteins, LNCaP; format: cell-based, human; details: 24 h, 25–75 µM
# Description: as §5
# caspase-8 [13] = assay: Caspase-8 activity (Ac-IETD-AFC cleavage) in PC-3 cell extracts; format: cell-based, human; details: PC-3, 24 h, 25–75 µM
# Description: as §3
# caspase-3 [14] = assay: Caspase-3 activity (Ac-DEVD-AFC cleavage) in LNCaP cell extracts; format: cell-based, human; details: 24 h, 25–75 µM
# Description: as §3
# LNCaP cells [15] = assay: DHT-stimulated LNCaP cell proliferation (real-time impedance, E-plates); format: cell-based, human
compound,measurement,setting,value
"C[C@H](CCC(=O)O)[C@H]1CC[C@H]2[C@@H]3[C@H](O)C[C@@H]4C[C@H](O)CC[C@]4(C)[C@H]3C[C@H](O)[C@]12C [CA, cholic acid]",Concentrations decreasing cell viability / number of intact cells,LNCaP cells [1],> 500 µM
same,Concentrations decreasing cell viability / number of intact cells,PC-3 cells [2],> 500 µM
"C[C@H](CCC(=O)O)[C@H]1CC[C@H]2[C@@H]3[C@H](O)C[C@@H]4C[C@H](O)CC[C@]4(C)[C@H]3CC[C@]12C [CDCA, chenodeoxycholic acid]",Concentrations decreasing cell viability / number of intact cells,LNCaP cells [1],above 100 µM
same,Concentrations decreasing cell viability / number of intact cells,PC-3 cells [2],above 100 µM
same,Concentrations that did not result in significant cell death,PC-3 cells [3],> 100 µM
"C[C@H](CCC(=O)O)[C@H]1CC[C@H]2[C@@H]3CC[C@@H]4C[C@H](O)CC[C@]4(C)[C@H]3C[C@H](O)[C@]12C [DCA, deoxycholic acid]",Concentrations decreasing cell viability / number of intact cells,LNCaP cells [1],above 100 µM
same,Concentrations decreasing cell viability / number of intact cells,PC-3 cells [2],above 100 µM
"C[C@H](CCC(=O)O)[C@H]1CC[C@H]2[C@@H]3C[C@H](O)[C@@H]4C[C@H](O)CC[C@]4(C)[C@H]3CC[C@]12C [HDCA, hyodeoxycholic acid]",Concentrations decreasing cell viability / number of intact cells,LNCaP cells [1],above 300 µM
same,Concentrations decreasing cell viability / number of intact cells,PC-3 cells [2],above 300 µM
"C[C@H](CCC(=O)O)[C@H]1CC[C@H]2[C@@H]3CC[C@@H]4C[C@H](O)CC[C@]4(C)[C@H]3CC[C@]12C [LCA, Lithocholic acid]",Catalytic activity of caspase-3,caspase-3 [4],increased
same,IC50,"LNCaP cells [1]; Homo sapiens, 48 h treatment, with 0.1 nM DHT, read-out: IC50 for decrease in number of intact cells",40.5 ± 0.07 µM
same,IC50,"PC-3 cells [2]; Homo sapiens, PC-3, 48 h treatment, read-out: IC50 for decrease in number of intact cells",74.9 ± 0.25 µM
same,Effect on viability of non-tumorigenic cells,RWPE-1 cells,without decreasing the viability
same,% of nominal concentration present in extracellular medium,[5]; LNCaP cultures after 24 h,≤ 98%
same,"% of compound recovered, Cells",[5]; 25 µM,2.72 ± 1.10%
same,"% of compound recovered, Medium",[5]; 25 µM,97.28 ± 1.10%
same,"% of compound recovered, Cells",[5]; 50 µM,5.85 ± 2.45%
same,"% of compound recovered, Medium",[5]; 50 µM,94.15 ± 2.45%
same,Caspase-9 activity,caspase-9 [6],statistically significant increases
same,Levels of 89 kDa PARP fragment elevated,PC-3 cells [7],not in PC-3 cells
same,Bcl-2 levels,PC-3 cells [7]; 25–75 µM,decreased levels
same,Effect on pro-apoptotic proteins Bax and Bid,PC-3 cells [7]; 25–75 µM,cleavage
same,"Levels of cleaved, active 17 and 20 kDa caspase-3 subunits",PC-3 cells [7]; 25–75 µM,increased levels
same,Change in mitochondrial membrane potential (MMP),PC-3 cells [8],marked decrease
same,Caspase-9 activity,caspase-9 [9],statistically significant increases
same,"% of compound recovered, Cells","[10]; PC-3, 50 µM",2.09 ± 0.05%
same,"% of compound recovered, Medium","[10]; PC-3, 50 µM",97.91 ± 0.05%
same,"% of compound recovered, Cells","[10]; PC-3, 75 µM",2.39 ± 1.93%
same,"% of compound recovered, Medium","[10]; PC-3, 75 µM",97.61 ± 1.93%
same,% of nominal concentration present in extracellular medium,[10]; PC-3 cultures after 24 h,≤ 98%
same,Levels of active caspase-8,caspase-8 [11],increased levels
same,Effect on pro-apoptotic proteins Bax and Bid,LNCaP cells [12],cleavage
same,Levels of 89 kDa PARP fragment,LNCaP cells [12],significantly elevated
same,"Levels of cleaved, active 17 and 20 kDa caspase-3 subunits",LNCaP cells [12],increased levels
same,Levels of active caspase-8,caspase-8 [13],increased levels
same,Catalytic activity of caspase-3,caspase-3 [14],increased
same,IC50,"LNCaP cells [15]; Homo sapiens, LNCaP, co-treated with 0.1 nM DHT, 72 h, read-out: IC50 for inhibition of proliferation of androgen-stimulated cells",8.5 µM
same,Concentrations that inhibit proliferation of AD prostate cancer cells,LNCaP cells [15]; well below those needed to induce apoptosis,2.5 to 10 µM
"C[C@H](CCC(=O)O)[C@H]1CC[C@H]2[C@@H]3[C@@H](O)C[C@@H]4C[C@H](O)CC[C@]4(C)[C@H]3CC[C@]12C [UDCA, ursodeoxycholic acid, reference compound]",Concentrations decreasing cell viability / number of intact cells,LNCaP cells [1],above 300 µM
same,Concentrations decreasing cell viability / number of intact cells,PC-3 cells [2],above 300 µM
same,"% of compound recovered, Cells",[5]; 25 µM,9.60 ± 3.86%
same,"% of compound recovered, Medium",[5]; 25 µM,90.40 ± 3.86%
same,"% of compound recovered, Cells",[5]; 50 µM,4.23 ± 0.10%
same,"% of compound recovered, Medium",[5]; 50 µM,95.77 ± 0.10%
same,Concentrations that did not result in significant cell death,PC-3 cells [3],> 100 µM
same,"% of compound recovered, Cells","[10]; PC-3, 50 µM",2.44 ± 0.17%
same,"% of compound recovered, Medium","[10]; PC-3, 50 µM",97.56 ± 0.17%
same,"% of compound recovered, Cells","[10]; PC-3, 75 µM",2.43 ± 0.67%
same,"% of compound recovered, Medium","[10]; PC-3, 75 µM",97.57 ± 0.67%
z-DEVD-fmk,Effect of caspase inhibitor on LCA-induced cell death,LNCaP cells [1],partially inhibited
same,Effect of caspase inhibitor on LCA-induced cell death,PC-3 cells [2],partially inhibited
z-IETD-fmk,Effect of caspase inhibitor on LCA-induced cell death,LNCaP cells [1],alleviated
same,Effect of caspase inhibitor on LCA-induced cell death,PC-3 cells [2],alleviated
